Test results as given in patent US20260234188A1, “CHEMOKINE-BINDING PEPTIDES” (Oxford University Innovation Limited, priority 2022, published 2026).
“Also recorded” adds a separate entry of the source.

Experiments:
[1] = test system: panel of 24 biotinylated chemokines; assay: Phage-display screen of HD2 NNK saturation mutagenesis library; format: binding, human; conditions: HD2 saturation mutants; chemokines on streptavidin beads; UniProt entry names
From the text: (§1) FIG. 7. Exemplar results from phage display screens using saturation mutagenesis. A phage-display library was constructed using the HD2 sequence, replacing each residue encoding codon with the degenerate sequence NNK. The 16 degenerate sequences (which also encoded the parental HD2 sequence) were pooled and cloned into display phage. […] Exemplar peptides were selected such that log 2 E for at least one chemokine was greater than 5, and log 2 E for binding to control (CO5, was less than zero). […] The fold enrichment of parental HD2 is also indicated.
as §1, with “A” for “FIG. 7. Exemplar results from phage display screens using saturation mutagenesis. A”
A molecular level understanding of binding mechanism is needed for development of peptides as therapeutics and is usually obtained from structural analyses. As HD2 binds many chemokines this becomes a challenging task, and we explored if we could elucidate this using phage display mutagenesis. The role of each residue in HD2 for binding was examined in phage-display. A library of HD2 mutations that had NNK substituted at each residue and performed phage-display selection against a panel of 24 biotinylated chemokines, in parallel, as described in Example 7. This strategy allowed us to evaluate the impact not only of Ala substitutions, but also conservative, hydrophilic and hydrophobic substitutions, and compare with binding of parental HD2 which is also included in the library. Ala substitution removes side-chains beyond the β-carbon and can be used to infer the role of side-chain functional groups without affecting conformational flexibility of the backbone. […] These residues are within the two motifs identified previously. Other notable residues identified were Y8 and P10. We next judged the impact of Ala mutation by calculating the change in log 2 E (Δlog 2 E) between the mutant and parental HD2. A positive value of Δlog 2 E indicates increased binding, and a negative value decreased binding compared to parental HD2. […] As may be seen, the log 2 E for the parental HD2 was ~0 in these analyses indicating lack of enrichment.
Oligonucleotide pools were amplified using primers: oligo_fwd: 5′-[…] and oligo_rev2: 5′-tcgtcaccctcggcgcctcctcoggatcctccacc. Oligonucleotide PCR products were cloned into plasmid prSTOP4Nsi using NEB Builder HiFi Assembly following instructions of the manufacturer. The vector pool was used to transform electrocompetent Invitrogen ElectroMAX™ DH5α-E™ cells. Plasmid DNA was harvested by MaxiPrep (GeneJet Plasmid Maxiprep Kit) and was transformed into SS320 phage display electrocompetent cells (Lucigen), following the manufacturer's protocol, resuspended in 950 μL recovery media for each electroporation, transferred to 50 mL Falcon tubes, 100 μL 1011 CFU/mL M13KO7 helper phage (NEB) added and shaken at 37° C., 220 RPM for 1 h. 1 mL recovery culture was added to 2YT medium containing +50 ug/mL carbenicillin and 25 ug/mL kanamycin, and grown overnight at 37C, 220 rpm. Phage was precipitated from the culture supernatant by adding 22.5 mL of supernatant to 4.5 mL 20% PEG 8000/2.5 M NaCl, incubating on ice for 30 min, and centrifuging at 10,000 RPM, 4° C. for 10 min, and resuspending phage in 1 ml of PBT, followed by centrifugation at 13000 RPM, 4° C., for 10 min. […]

[2] = target: T1, CCL3 (Homo sapiens, UniProt P10147); assay: CCL3-induced THP-1 cell migration, transwell assay; format: cell-based; conditions: HD2 mutant peptides 10 μM, chemokine at EC80
T1 construct: purchased Peprotech
T1 sequence (P10147 24-92): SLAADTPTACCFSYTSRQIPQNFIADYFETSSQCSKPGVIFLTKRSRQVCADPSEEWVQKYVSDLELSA
Experimental: FIG. 2. […] BK1.2 is described in (Darlot, 2020). […] Chemokines used are indicated by the name, followed in parenthesis by the supplier code (P in supplier code indicates Peprotech). […] All experiments were performed at EC80 doses of indicated chemokine. Data are shown as box-whisker plots of three technical and three biological replicates. Statistically significant differences (compared to control, indicated by #), using Dunnett's test with correction for multiple comparisons, are indicated by asterisks: ****=P≤0.0001, ***=P≤0.001, **=P≤0.01, *=P≤0.05.
Briefly, cell migration assays use THP1 cells (human monocyte) and primary human buffy coat white cells (consisting of neutrophil granulocytes, monocytes, and lymphocytes), and activated T-cells. […] Assays are performed in 96-well Boyden chambers, and migrated cells counted and characterized using and ATTUNE Flow Cytometer as described. […]
The J:CXCR1 cell line was generated by transfecting Jurkat cells by electroporation with PvuI-linearized plasmid D1398 and selecting with blasticidin (Sigma-Aldrich, Cat #203350, 5 g/mL). […] Cell counts were determined by Attune NxT Flow Cytometer Plate Reader (ThermoFisher), based on cell size parameters FSC-H/SSC-H. Experiments were performed in 3 technical and 3 biological replicates. […] Statistical significances between control experimental groups was evaluated using Dunnett's test. […]

## EEDDYTAYAPLWCYFT [HD2_W12]
[1]
  Chemokines Bound log2E 1-5: CCL1, CCL15, CCL17, CCL18,; also recorded: CCL19, CCL20, CCL22, CCL25,; also recorded: CCL28, CCL4, X3CL1, SDF1,; also recorded: CXL14
  Chemokines Bound log2E > 5: CCL3
[2]
  chemotaxis compared with the parental HD2 peptide: significant reduction in chemotaxis
